Key:
Format in all cases: cell-based, human
ASPC-1 cells = test: Cell viability assay (Alamar Blue) in PDAC cell lines, LGK974 comparator
PaTu-8988S cells = test: as above
HPAF-II cells = test: Crystal violet staining proliferation (clonogenic growth) assay; details: 100 nM LGK974
Method: Crystal Violet Staining Proliferation Assay: HPAFII Cas9 cells were transduced with lentivirus generated with the indicated pLCKO plasmid as described above. 24 hours after infection cells were treated with puromycin. After 48 hours of selection, cells were PBS washed extensively, dissociated and counted. 2000 cells per well were re-seeded in 24-well format in media without puromycin. 24 hours post seeding, indicated wells were treated with DMSO control or 100 nM LGK974 (Cayman Chemical #14072) (note that these wells were from the LacZ gRNA population). Medium was renewed every 3-4 days and cells were fixed, 10 days post plating, using 100% ice-cold methanol. After fixation cells were stained with 0.5% crystal violet, 25% methanol solution for 20 minutes at room temperature, after which staining solution was removed and plates were washed several times in dH2O.
To validate the screen results HPAF-II cells were first infected with lentivirus coding for various gRNAs, transduced cells were selected for 48 hours and plated in clonogenic growth assays. […] In contrast, the growth of PANC-1 and BxPC-3 cell lines, which are wild-type for RNF43, was not inhibited by gRNAs targeting FZD5, FZD7 or CTNNB1 (FIG. 4C and FIG. 5).

MUC5AC = test: RT-qPCR of differentiation induced gene MUC5AC; details: RNF43-mutant PDAC cells
Method: Reverse transcription and quantitative real-time PCR: After indicated treatments, cells were lysed in Tri-reagent (BioShop Canada #TSS120) and RNA extracted using the manufacturer's protocol. RNA concentration was quantified with Nanodrop1000 (Thermo Scientific) and 2 micrograms of RNA per sample was DNase I treated (ThermoFisher #AM2222). DNase treated RNA was used to make cDNA with High-Capacity cDNA Reverse Transcription Kit (ThermoFisher #4368813). Real-time PCR was performed using Power SYBR Green Master Mix on the 7900HT Fast Real-Time PCR system. Primer pairs are listed below. Analysis was done using the comparative cycle threshold (CT) method (Bookout et al., 2006) with all samples normalized to PPIB (cyclophilin B) expression. To validate the screen results HPAF-II cells were first infected with lentivirus coding for various gRNAs, transduced cells were selected for 48 hours and plated in clonogenic growth assays. […] In contrast, the growth of PANC-1 and BxPC-3 cell lines, which are wild-type for RNF43, was not inhibited by gRNAs targeting FZD5, FZD7 or CTNNB1 (FIG. 4C and FIG. 5).

Structure (SMILES): Cc1cc(-c2ncc(CC(=O)Nc3ccc(-c4cnccn4)cn3)cc2C)ccn1 [LGK974]
- growth (cell viability) (ASPC-1 cells): inhibited the growth
- growth (cell viability) (PaTu-8988S cells): inhibited the growth
- growth in clonogenic growth assay (HPAF-II cells): robust growth inhibition
- expression of the differentiation marker MUC5AC (MUC5AC): increased expression
